Data taken from ChEMBL document CHEMBL4715842, “Sulfonamide/sulfamate switch with a series of piperazinylureido derivatives: Synthesis, kinetic and in silico evaluation as carbonic anhydrase isoforms I, II, IV, and IX inhibitors” (Eur J Med Chem, 2020).

Assays:
[1] = biological target: Carbonic anhydrase 1 (Homo sapiens, UniProt P00915); test: Inhibition of recombinant human carbonic anhydrase 1 incubated for 15 mins prior to testing measured for 10 to 100 secs by phenol red-based stopped-flow CO2 hydration assay
[2] = biological target: Carbonic anhydrase 2 (Homo sapiens, UniProt P00918); test: Inhibition of recombinant human carbonic anhydrase 2 incubated for 15 mins prior to testing measured for 10 to 100 secs by phenol red-based stopped-flow CO2 hydration assay
[3] = biological target: Carbonic anhydrase 4 (Homo sapiens, UniProt P22748); test: Inhibition of recombinant human carbonic anhydrase 4 incubated for 15 mins prior to testing measured for 10 to 100 secs by phenol red-based stopped-flow CO2 hydration assay
[4] = biological target: Carbonic anhydrase 9 (Homo sapiens, UniProt Q16790); test: Inhibition of recombinant human carbonic anhydrase 9 incubated for 15 mins prior to testing measured for 10 to 100 secs by phenol red-based stopped-flow CO2 hydration assay
[5] = organism: Homo sapiens; test: Selectivity ratio of Ki for inhibition of recombinant human carbonic anhydrase 2 to Ki for Ki for inhibition of recombinant human carbonic anhydrase 9

Carbonic anhydrase 1, sequence (P00915 whole entry): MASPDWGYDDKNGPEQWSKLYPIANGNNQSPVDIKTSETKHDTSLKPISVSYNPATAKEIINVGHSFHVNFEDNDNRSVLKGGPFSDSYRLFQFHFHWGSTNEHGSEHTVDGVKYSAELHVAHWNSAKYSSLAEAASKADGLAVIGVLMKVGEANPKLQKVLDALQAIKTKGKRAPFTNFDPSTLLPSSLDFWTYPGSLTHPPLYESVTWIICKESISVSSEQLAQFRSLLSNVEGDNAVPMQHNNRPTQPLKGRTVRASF
Carbonic anhydrase 4, sequence (P22748 whole entry): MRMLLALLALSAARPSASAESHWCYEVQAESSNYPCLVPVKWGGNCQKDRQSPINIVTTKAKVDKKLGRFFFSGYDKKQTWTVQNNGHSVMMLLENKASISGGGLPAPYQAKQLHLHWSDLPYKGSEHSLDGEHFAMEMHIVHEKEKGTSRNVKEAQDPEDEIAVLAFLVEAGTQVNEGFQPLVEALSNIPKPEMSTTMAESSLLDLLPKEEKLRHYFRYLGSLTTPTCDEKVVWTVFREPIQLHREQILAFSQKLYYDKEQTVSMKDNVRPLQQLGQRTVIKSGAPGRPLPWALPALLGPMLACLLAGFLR

Row | SMILES | Ki [1] [nM] | Ki [2] [nM] | Ki [3] [nM] | Ki [4] [nM] | Ratio Ki [5]
1 | CCCCCCCCN1CCN(C(=O)Nc2ccc(OS(N)(=O)=O)cc2)CC1 | 752 | 15.9 | 4800 | 31400 | 
2 | COc1ccc(-c2ccnc(N3CCN(C(=O)Nc4ccc(OS(N)(=O)=O)cc4)CC3)n2)cc1 | 3930 | 29.1 | 384 | 31800 | 
3 | NS(=O)(=O)Oc1ccc(NC(=O)N2CCN(c3ccc(Cl)cc3)CC2)cc1 |  |  | 2590 |  | 
4 | COc1cccc(N2CCN(C(=O)Nc3ccc(OS(N)(=O)=O)cc3)CC2)c1 |  |  | 994 |  | 
5 | NS(=O)(=O)Oc1ccc(NC(=O)N2CCN(c3ccc(Cl)c(Cl)c3)CC2)cc1 | 919 | 45.4 | 1640 |  | 
6 | CCCCCCCCCCN1CCN(C(=O)Nc2ccc(OS(N)(=O)=O)cc2)CC1 | 680 | 21 | 4190 | 32200 | 
7 | NS(=O)(=O)Oc1ccc(NC(=O)N2CCN(c3nccc(-c4ccccc4)n3)CC2)cc1 | 2370 | 706 | 4100 | 156000 | 
8 | NS(=O)(=O)Oc1ccc(NC(=O)N2CCN(c3nccc(-c4cccc(C(F)(F)F)c4)n3)CC2)cc1 | 3470 | 58.7 | 458 | 27100 | 
9 | Cc1cccc(N2CCN(C(=O)Nc3ccc(OS(N)(=O)=O)cc3)CC2)c1C |  |  | 1090 |  | 
10 | Cc1ccccc1N1CCN(C(=O)Nc2ccc(OS(N)(=O)=O)cc2)CC1 | 692 | 56.9 | 759 | 29700 | 
11 | Cc1cccc(N2CCN(C(=O)Nc3ccc(OS(N)(=O)=O)cc3)CC2)c1 |  |  |  |  | 16
12 | Cc1cccc(-c2ccnc(N3CCN(C(=O)Nc4ccc(OS(N)(=O)=O)cc4)CC3)n2)c1 | 4070 | 207 | 1320 | 93300 | 
13 | NS(=O)(=O)Oc1ccc(NC(=O)N2CCN(Cc3cc4ccccc4o3)CC2)cc1 | 760 | 36.2 |  | 32700 | 
14 | NS(=O)(=O)Oc1ccc(NC(=O)N2CCN(c3nccc(-c4cccc(Br)c4)n3)CC2)cc1 | 7770 | 124 | 831 | 30500 | 
15 | COc1cc(-c2ccnc(N3CCN(C(=O)Nc4ccc(OS(N)(=O)=O)cc4)CC3)n2)cc(OC)c1OC | 5280 | 6.8 | 280 | 24200 | 
16 | COc1ccc(N2CCN(C(=O)Nc3ccc(OS(N)(=O)=O)cc3)CC2)cc1 |  |  | 1630 |  | 
17 | NS(=O)(=O)Oc1ccc(NC(=O)N2CCN(c3ccccc3)CC2)cc1 |  |  |  |  | 7
